Measured values as given in patent publication US20210308270A1, “SYSTEMS AND METHODS FOR INTRACELLULAR DELIVERY VIA NON-CHARGED SEQUENCE-DEFINED CELL-PENETRATING OLIGOMERS” (priority 2018, published 2021).

Experiments:
[1] = system: Listeria monocytogenes DP-L1942; assay: In vitro intracellular infection assay in J774 cells; format: cell-based
Method: In vitro Intracellular Infection Assay: 100,000 cells/well J774 cells in DMEM supplemented with 10% FBS without pen-strep, referred to as normal growth media, were plated in a 24-well plate and incubated for 20-24 hrs before use. Listeria monocytogenes DP-L1942 strain was taken from an exponentially growing culture (OD600 of ˜0.5) and washed with 1×PBS pH 7.4. Macrophages were infected with 200,000 bacteria in normal growth media to achieve an initial infection of approximately two bacteria per cell (MOI=2). The cells were washed twice with PBS at 30 mins after infection and supplemented with normal growth media. At 1-hr post infection, gentamicin (50 μg/ml) was added to eliminate all extracellular bacteria. The cells were then washed twice with PBS after 30 mins of incubation and supplemented with normal growth media. At 2-hr post infection, 30 μM of CPOT-vancomycin conjugates were added to the infected cells and incubated for 4 hrs. At the end of the incubation period, macrophages were washed twice with PBS, and the cells were lysed with 0.1% Triton-X in PBS. The cell lysate was diluted 10× in Brain Heart Infusion (BHI) broth and plated in a 96-well plate. The plate was incubated at 37° C. with agitation. The growth curve kinetics were generated from the absorbance measurements at 600 nm taken every 5 mins for 14 hrs.

[2] = system: HeLa cells; assay: Cellular uptake of fluorescein conjugates by flow cytometry, HeLa; format: cell-based, human
Method: (§1) After the incubation, cells were washed with PBS and incubated with 200 μL of Trypsin EDTA at 37° C. for 3-5 mins. 1 mL of DMEM with 10% FBS was then added to quench the trypsin. […] Results were analyzed by FlowJo software.
Dose-dependent uptake: The standard uptake procedure was followed, except that cells were treated with the labeled oligoTEAs at 0.5 μM to 5 μM. All other conditions remained the same.
Uptake kinetics study: The standard uptake procedure was followed, except that cells were treated with fluorescein-PEO^2-B at 2.5 μM for 15-120 mins (minutes). After the incubation, the plate was cells were washed with PBS and incubated with 200 μL of Trypsin EDTA at 37° C. for 3-5 mins. All other conditions remained the same.
(§2) Mechanism of uptake: The standard uptake procedure was followed with the following changes for each mechanistic condition. Readings were taken on a FACSAria™ Fusion flow cytometry analyzer (Becton Dickinson).
Uptake with and without serum: Prior to treatment, cells were washed with PBS. Cells were then incubated with fluorescein conjugates in either DMEM with 10% FBS or Opti-MEM at 37° C. for 1 hr. Following treatment, cells were washed with PBS before addition of Trypsin EDTA.
Pretreatment with heparin sulfate: Prior to treatment, fluorescein conjugates were incubated with different concentrations of heparin sulfate and DMEM with 10% FBS in Eppendorf® tubes for 30 mins at 37° C. Cells were washed with PBS, and incubated with the treatment solutions at 37° C. for 1 hr. Following treatment, cells were washed with PBS once more before addition of Trypsin EDTA.
(§3) Temperature dependence: Prior to treatment, fluorescein conjugates were incubated with DMEM with 10% FBS in Eppendorf® tubes for 30 mins at 37° C. or 4° C. Cells were washed with warm (37° C.) or cool (4° C.) PBS for 5 mins. Pre-warmed or pre-cooled fluorescein conjugate solution was then added, and cells were incubated at 37° C. or refrigerated at 4° C. for 1 hr. Following treatment, cells were washed with PBS before addition of Trypsin EDTA.
(§4) Uptake with and without NaN3 and 2-deoxy-D-glucose (DOG): Prior to treatment, cells were washed with PBS. Cells were then incubated with 10 mM NaN3 and 25 mM DOG in DMEM with 10% FBS at 37° C. for 1 hr. Fluorescein conjugates were added, and cells were incubated at 37° C. for another hour. Following treatment, cells were washed with PBS before addition of Trypsin EDTA.
as §4, with “chlorpromazine (CPM):” for “NaN3 and 2-deoxy-D-glucose (DOG):”, “5 μg/mL (or 15.7 μM) CPM” for “10 mM NaN3 and 25 mM DOG”, “EDTA. […]” for “EDTA.”

[3] = system: SKOV-3 cells; assay: Cellular uptake of fluorescein conjugates by flow cytometry, SKOV-3; format: cell-based, human
Method: as §1, §2, §3, §4
(§5) Uptake with and without chlorpromazine (CPM): Prior to treatment, cells were washed with PBS. […]

[4] = system: HEK293 cells; assay: Cellular uptake of fluorescein conjugates by flow cytometry, HEK293; format: cell-based, human
Method: as §1, §2, §3, §4, §5

[5] = system: HeLa cells; assay: Live-cell confocal microscopy and time-lapse imaging; format: cell-based, human
Method: Live-Cell confocal microscopy: 70,000 HeLa cells/chamber were plated in a 4-chamber 35-mm glass-bottom microwell dish ([…]) and cultured at 37° C. for 20-24 hrs. […] For co-localization experiments, cells were incubated with fluorescein conjugates along with 150 nM Transferrin-Alexa Fluor 647, or 150 μM Dextran-Alexa Fluor 647 for 1 hr at 37° C. Cells were gently washed 3 times with PBS, and FluoroBrite DMEM Media supplemented with 10% FBS was added to each chamber for imaging. Images were taken on a Zeiss LSM880 live-cell confocal/multiphoton inverted microscope, equipped with a 63× oil objective, with 488-nm and 633-nm lasers enabled for fluorescein and Transferrin-Alexa Fluor 647/Dextran-Alexa Fluor 647, respectively. Images were processed using Fiji software. Time-lapse live-cell imaging: 70,000 HeLa cells/chamber were plated in a 4-chamber 35-mm glass-bottom microwell dish ([…]) and cultured at 37° C. for 20-24 hrs. […] Images were taken on a Zeiss LSM880 live-cell confocal/multiphoton inverted microscope, equipped with a 63× oil objective, with 488-nm laser enabled for fluorescein. Images were processed using Fiji software.

[6] = system: J774 cells; assay: Uptake of fluorescein cargo by oligoTEAs, flow cytometry, J774; format: cell-based; conditions: 5 μM, 1 hr
Method: (§6) After the incubation, cells were washed with PBS. […] Results were analyzed by FlowJo software.

[7] = system: MC-3T3-E1 cells; assay: Uptake of fluorescein cargo by oligoTEAs, flow cytometry, MC-3T3-E1; format: cell-based; conditions: 5 μM, 1 hr
Method: as §6

O=C(O)c1cn(C2CC2)c2cc(N3CCNCC3)c(F)cc2c1=O [Ciprofloxacin]
inhibition at 30 µM ([1]; Listeria monocytogenes, DPL1942, J774, 4 h, read-out: inhibition of bacteria growth): > 80%

CN[C@H](CC(C)C)C(=O)N[C@H]1C(=O)N[C@@H](CC(N)=O)C(=O)N[C@H]2C(=O)N[C@H]3C(=O)N[C@H](C(=O)N[C@H](C(=O)O)c4cc(O)cc(O)c4-c4cc3ccc4O)[C@H](O)c3ccc(c(Cl)c3)Oc3cc2cc(c3O[C@@H]2O[C@H](CO)[C@@H](O)[C@H](O)[C@H]2O[C@H]2C[C@](C)(N)[C@H](O)[C@H](C)O2)Oc2ccc(cc2Cl)[C@H]1O [vancomycin]
inhibition of bacteria growth ([1]; 30 μM, 4 hrs treatment, 14th hour of growth curve): little to no effect on bacteria growth

Ac-RRRRRRRRRK-Am (Ac-RRRRRRRRRK-NH2) [R9, widely used cationic CPP, purchased from GenScript]
temperature dependence of uptake, 4° C. vs 37° C. [2]: weaker dependence on temperature
increase of uptake in the absence of serum ([2]; Opti-MEM vs DMEM with 10% FBS): 2 fold
effect of endocytosis inhibitors on uptake ([2]; chlorpromazine (clathrin), filipin III (caveolae), cytochalasin D (macropinocytosis)): dependence on clathrin in HeLa cells and macropinocytosis in both HEK293 and HeLa cells
decrease of uptake in the presence of heparin sulfate ([2]; conjugate pretreated with heparin sulfate 30 mins): 6 fold
temperature dependence of uptake, 4° C. vs 37° C. [3]: weaker dependence on temperature
temperature dependence of uptake, 4° C. vs 37° C. [4]: weaker dependence on temperature
effect of endocytosis inhibitors on uptake ([4]; chlorpromazine, filipin III, cytochalasin D): macropinocytosis in both HEK293 and HeLa cells
subcellular distribution ([5]; 5 μM fluorescein conjugate, 1 hr, 63×): primarily as punctate spots
trend of uptake of fluorescein cargo [6]: R9 (PEG-Bu)4>(BDT-PEG)4>(BDT-PEG4)4˜(PEG-PEG)4
trend of uptake of fluorescein cargo [7]: R9 (PEG-Bu)4>(BDT-PEG)4>(BDT-PEG4)4˜(PEG-PEG)4

fluorescein acid
internalization in time-lapse live cell imaging ([5]; 2.5 μM, trypan blue present, 60 mins): no internalization
